# Read-outs that look alike come from different tables or passages of the source. Residues, ends and D or L forms follow the SMILES beside them. *: point of attachment. Cbz = O=C(OCc1ccccc1)*
# T1: RB (retinoblastoma protein, endogenous, in lysate of RafAR-NIH3T3 control cells) (UniProt P13405 2-921)
# T1 sequence: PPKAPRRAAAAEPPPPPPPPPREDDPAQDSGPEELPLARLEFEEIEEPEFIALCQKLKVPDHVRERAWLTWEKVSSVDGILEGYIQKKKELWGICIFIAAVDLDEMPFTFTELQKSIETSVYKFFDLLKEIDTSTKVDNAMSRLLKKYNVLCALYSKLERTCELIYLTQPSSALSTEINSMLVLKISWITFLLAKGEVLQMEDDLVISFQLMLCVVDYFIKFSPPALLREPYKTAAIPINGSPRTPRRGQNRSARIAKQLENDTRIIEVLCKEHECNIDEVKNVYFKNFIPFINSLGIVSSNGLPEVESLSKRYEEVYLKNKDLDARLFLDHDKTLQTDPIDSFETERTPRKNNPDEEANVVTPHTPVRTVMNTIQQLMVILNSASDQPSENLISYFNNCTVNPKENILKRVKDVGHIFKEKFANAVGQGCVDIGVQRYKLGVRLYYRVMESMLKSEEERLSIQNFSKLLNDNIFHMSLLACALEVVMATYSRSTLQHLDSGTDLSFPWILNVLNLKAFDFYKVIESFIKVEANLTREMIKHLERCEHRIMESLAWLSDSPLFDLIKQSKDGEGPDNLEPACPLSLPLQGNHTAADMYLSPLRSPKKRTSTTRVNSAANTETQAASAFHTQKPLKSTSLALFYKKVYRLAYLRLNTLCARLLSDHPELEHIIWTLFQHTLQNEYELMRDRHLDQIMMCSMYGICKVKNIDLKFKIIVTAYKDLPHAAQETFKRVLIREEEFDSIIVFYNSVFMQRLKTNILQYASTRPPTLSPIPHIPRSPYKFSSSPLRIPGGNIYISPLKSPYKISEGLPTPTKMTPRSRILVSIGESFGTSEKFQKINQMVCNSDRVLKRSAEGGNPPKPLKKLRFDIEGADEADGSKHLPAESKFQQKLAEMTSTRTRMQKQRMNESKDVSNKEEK
# B1: p21^Cip1 (endogenous, in lysates of RafAR-expressing NIH3T3 cells) (other, UniProt P39689 2-159, looked up)
# chain: SNPGDVRPVPHRSKVCRCLFGPVDSEQLRRDCDALMAGCLQEARERWNFDFVTETPLEGNFVWERVRSLGLPKVYLSPGSRSRDDLGGDKRPSTSSALLQGPAPEDHVALSLSCTLVSERPEDSPGGPGTSQGRKRRQTSLTDFYHSKRRLVFCKRKP
# notes: also called p21^Cpi1
# B2: purified recombinant GST-E7 (HPV16 E7) (other)
# chain: MHGDTPTLHEYMLDLQPETTDLYCYEQLNDSSEEEDEIDGPAGQAEPDRAHYNIVTFCCKCDSTLRLCVQSTHVDIRTLEDLLMGTLGIVCPICSQKP
# Legend:
# [1] = tested on: p27^Kip1 nuclear localization; assay: p27^Kip1 localization by immunofluorescence in TGF-β treated tet-E7 Mv1Lu cells; assay type: cell-based, mink; details: 3 ng/mL TGF-β, 24 hours, absence of E7
# Protocol: (A) Tet-E7 Mv1Lu cells were treated for 24 hours with 2 μg/mL doxycycline or vehicle. Cell lysates were analyzed by Western blotting with antibody specific for HPV16 E7. (B) Tet-E7 Mv1Lu cells were treated for 24 hours with 3 ng/mL TGF-β in the presence or absence of 2 μg/mL doxycycline and subsequently analyzed for p27^Kip1 expression via Western blot. (C, D) Tet-E7 Mv1Lu cells were treated as in (B), fixed with 3.7% paraformaldehyde, and stained with p27^Kip1 specific antibody as described in Materials and Methods. (C) Representative fluorescent (left panels) and phase contrast (right panels) micrographs of TGF-β treated cells in the absence (upper panels) or presence (lower panels) of doxycycline. […] The number of cells with nuclear p27^Kip1 accumulation is represented as a percentage of total cells counted. The average and deviation values shown are from two independent experiments with at least 200 cells counted per experiment.
# Cell culture. NIH3T3 cells stably expressing the RafAR fusion protein have been described previously (Sewing et al., 1997). This cell line and all derivatives were cultured in DMEM without phenol red (GIBCO-BRL) supplemented with 10% charcoal-stripped newborn calf serum (NCS, Hyclone). […]
# Immunofluorescence. […] Antigen staining was visualized by inverted fluorescence microscopy (Olympus CK40), and images were captured with Quality Imaging camera and software. […]
# [2] = tested on: NIH3T3 cells stably expressing the RafAR fusion protein; assay: Cell cycle analysis (BrdU incorporation / propidium iodide) in RafAR-expressing NIH3T3 cells; assay type: cell-based, murine; details: control cells (Babe), RafAR activation with 1.0 μM R1881, 30 hours
# Protocol: (A) NIH3T3 cells stably expressing the RafAR fusion protein were infected with amphotrophic retroviruses expressing HPV-16 E7 (E7) or empty vector (Babe). Lysates were prepared and 100 μg of protein was resolved by 15% SDS-PAGE, transferred to nitrocellulose membrane, and probed with a monoclonal antibody directed against HPV-16 E7. (B and C) Pools of Babe- or E7-expressing cells growing in DMEM plus 10% NCS were treated with 0.02% ethanol (−) or 1.0 μM R1881 (+) for 30 hours and pulsed with BrdU for 30 minutes. Cells were trypsinized, fixed in 70% ethanol, and stained with propidium iodide (PI) for detection of total DNA content (B) and with α-BrdU-FITC for detection of DNA synthesis (C).
# (A) E7-expressing cells were treated for 30 hours with 1.0 μM R1881 in the absence or presence of increasing concentrations of LY294002 (50 μM, 100 μM, 200 μM), an inhibitor of PI-3K activity. DNA synthesis was measured via BrdU incorporation. (B) E7-expressing cells were treated with 1.0 uM R1881 in the presence or absence of 100 uM LY294002, stained with p21^Cip1-specific antibody, and quantitated for nuclear p21^Cip1 localization as in FIG. 7. […] Cells were stained with α-BrdU, and GFP-positive cells were scored for BrdU incorporation via indirect immunofluorescence. Percentages of BrdU incorporation were calculated by defining the number obtained from vehicle-treated cells as 100%. […]
# [3] = tested on: Akt phosphorylated on serine 473 (P-Akt); assay type: cell-based, murine
# Protocol: The drugs and R1881 were added at 0 hr and the samples were taken at 6 hrs post-treatment.
# Immunoblotting and immunoprecipitations (IP). Cell pellets were lysed in HLB lysis buffer (50 mM Tris pH 8.0, 150 mM NaCl, 1% Triton X-100, 1 mM DTT, and protease inhibitor cocktail (Sigma P8340)) for 30 minutes with vortexing. After centrifugation, protein content was quantitated via a standard BioRad Bradford assay. For immunoblotting, 30-50 μg of cell lysate was separated by sodium dodecyl sulfate-polyacrylamide gel electrophoresis (SDS-PAGE) and transferred onto nitrocellulose membrane (Schleicher and Schuell). After incubation with primary and secondary antibodies, antigen detection was performed using the enhanced chemiluminescence kit from NEN. The following antibodies were obtained from Santa Cruz: α-cyclin D1 (sc-450, Western), α-cyclin D2 (sc-593, Western), α-cyclin E (sc-481, IP and Western), α-human cyclin E (sc-198, IP and Western), α-CDK2 (sc-163 g, IP and Western), α-CDK4 (sc-260, IP and Western), α-p21^Cip1 (sc-6246, Western), α-p21^Cip1 (sc-397, IP and immunofluorescence), and a-phospho-threonine (sc-5267, Western). HPV-16 E7-specific and RB-specific antibodies were purchased from Zymed and Pharmingen, respectively. Antibodies recognizing Akt or Akt phosphorylated at serine-473 were obtained from Cell Signaling. For immunoprecipitations, cell lysates were incubated with primary antibodies for 2 hours at 4° C., and immune-complexes were collected on Protein A-agarose beads (Santa Cruz) for an additional 1 hour. The complexes were washed four times with HLB buffer and resolved by 12% SDS-PAGE for immunoblotting.
# c-Raf-1 was induced by addition of the androgen analog R1881, as described herein and the cells harvested at various times thereafter.
# [4] = tested on: RafAR-expressing NIH3T3; assay: Cell morphology after RafAR activation in NIH3T3; assay type: cell-based, murine; details: RafAR activation with 1.0 μM R1881
# [5] = tested on: human foreskin keratinocytes (HFK); assay: Adriamycin DNA damage in control or E7-expressing HFK, Western blots for active Akt and p21^CIP; assay type: cell-based; details: 0.1 mM Adriamycin, 17 hours
# [6] = target: cyclin E (endogenous, in lysates of RafAR-NIH3T3 cells) (UniProt Q61457 1-408); assay: cyclin E immunoprecipitation, p21^Cip1 Western blot
# [7] = target: B1; assay: GST pull-down from control cell lysate, Western blot
# [8] = target: T1, RB (retinoblastoma protein, endogenous, …); assay: as above
# [9] = drug added with R1881 at 0 hr, samples taken 6 hrs post-treatment
molecule,measurement,setting,value
TGF-β,nuclear accumulation of p27^Kip1,[1],robust nuclear accumulation
"C[C@]1(O)CC[C@H]2[C@@H]3CCC4=CC(=O)CCC4=C3C=C[C@@]21C [R1881, methyltrienolone]",DNA synthesis,[2],inhibition of DNA synthesis
same,cells accumulating in G1,[2],> 85%
same,time post-treatment at which down-regulation of active Akt (P-Akt) is observed,[3]; c-Raf-1 induced by R1881,≤ 5 h
same,time post-treatment at which total Akt protein levels decrease,[3]; c-Raf-1 induced by R1881,19 to 26 h
same,cell morphology,[4],morphological changes including elongation and development of extended processes
CC(C)C[C@@H](C=O)NC(=O)[C@H](CC(C)C)NC(=O)[C@H](CC(C)C)NC(=O)OCc1ccccc1 [MG132] (Cbz-Leu-Leu-Leu-aldehyde),down-regulation of active Akt (P-Akt) on induction of c-Raf-1,[3]; [9],down-regulation of P-Akt was similar to control cells
N#CC(=C(/N)Sc1ccccc1N)/C(C#N)=C(\N)Sc1ccccc1N [U0126],basal level of active Akt,[3],increased
same,down-regulation of active Akt (P-Akt) on induction of c-Raf-1,[3],down-regulation is inhibited
C[C@@H]1C[C@@H]([C@H](O)CC2CC(=O)NC(=O)C2)C(=O)[C@@H](C)C1 [cyclohexamide],down-regulation of active Akt (P-Akt) on induction of c-Raf-1,[3]; [9],inhibited the down-regulation of Akt
COc1cccc2c1C(=O)c1c(O)c3c(c(O)c1C2=O)C[C@@](O)(C(=O)CO)C[C@@H]3O[C@H]1C[C@H](N)[C@H](O)[C@H](C)O1 [adriamycin],active Akt levels after adriamycin treatment,[5],maintained only in E7-expressing cells
same,p21^CIP levels after adriamycin treatment,[5],increased
B1,binding result,[6],binds
B2,binding result,[7],no binding
same,binding result,[8],binds

# Reference: patent US20060088472A1, “E7 regulation of p21 cip1 through akt” (priority 2002, published 2006)
